Data set [1] deals with P. falciparum TM4/8.2 (wild type). Briefly: microbe, parasite or virus in culture. The note with it: read-out: IC50 P. falciparum TM4/8.2 (WT). It counts as cell-based, Plasmodium falciparum. The source says:
(§1) In Vitro Antimalarial Activites Against P. falciparum and Cytotoxicity Towards Mammalian Cells (Vero Cells)

Data set [2] has as its system P. falciparum V1/S (N51I + C59R + S108 + I164L). Briefly: microbe, parasite or virus in culture. The format is cell-based, Plasmodium falciparum. The settings on record: read-out: IC50 P. falciparum V1/S.
Excerpt: as §1

For the next data set, the system named is Vero cells. Briefly: in vitro. The settings on record: read-out: Cytotoxicity against Vero cells (IC50); Vero cells.
Excerpt: as §1

Data set [3] has as its target T1, Human dihydrofolate reductase (hDHFR) (Homo sapiens, UniProt P00374).
T1 sequence (P00374 1-187): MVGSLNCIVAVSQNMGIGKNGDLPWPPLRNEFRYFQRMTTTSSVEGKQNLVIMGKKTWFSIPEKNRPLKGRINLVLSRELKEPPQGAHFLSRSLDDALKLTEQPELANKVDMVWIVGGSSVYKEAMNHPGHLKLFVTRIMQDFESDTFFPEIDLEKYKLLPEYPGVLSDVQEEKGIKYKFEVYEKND
Briefly: Inhibition of human dihydrofolate reductase (Ki). The settings on record: human DHFR; hydrochloride salts. The format is biochemical.

The next data set in a line: in vitro. The settings on record: African green monkey.
Excerpt: as §1

Data set [4] deals with quadruple mutant N51I + C59R + S108N + I164L (QM) pfDHFR (Plasmodium falciparum, UniProt P13922, I164L/N51I). Briefly: Inhibition of quadruple mutant pfDHFR (Ki). The format is biochemical. As to the method: (§2) The synthesized 2,4-diamino-6-ethylpyrimdine derivatives as the hydrochloride salts were tested for the activities against Plasmodium falciparum (P. falciparum) according to the standard methods. These include the inhibition of dihydrofolate reductase (DHFR) enzymes of P. falciparum including, wild type (WT) and quadruple mutants (N51IC59RS108NI164L) (QM). The inhibition was expressed as inhibition constants (Ki) in nano molar (nM).

In a further data set the target is wild type (WT) pfDHFR (Plasmodium falciparum, UniProt P13922, N108S/R59C). Briefly: Inhibition of wild type pfDHFR (Ki). The format is biochemical. As to the method:
as §2

Where [5] appears, read: Plasmodium falciparum, in vitro, wild-type strain TM4/8.2.
The mark [6] stands for this setting: Plasmodium falciparum, in vitro, quadruple mutant strain V1/S.

Like-named read-outs stand apart in the source and are kept apart here.

quadruple mutant N51I + C59R + S108N + I164L (QM) pfDHFR, sequence (P13922 whole entry N51I/I164L): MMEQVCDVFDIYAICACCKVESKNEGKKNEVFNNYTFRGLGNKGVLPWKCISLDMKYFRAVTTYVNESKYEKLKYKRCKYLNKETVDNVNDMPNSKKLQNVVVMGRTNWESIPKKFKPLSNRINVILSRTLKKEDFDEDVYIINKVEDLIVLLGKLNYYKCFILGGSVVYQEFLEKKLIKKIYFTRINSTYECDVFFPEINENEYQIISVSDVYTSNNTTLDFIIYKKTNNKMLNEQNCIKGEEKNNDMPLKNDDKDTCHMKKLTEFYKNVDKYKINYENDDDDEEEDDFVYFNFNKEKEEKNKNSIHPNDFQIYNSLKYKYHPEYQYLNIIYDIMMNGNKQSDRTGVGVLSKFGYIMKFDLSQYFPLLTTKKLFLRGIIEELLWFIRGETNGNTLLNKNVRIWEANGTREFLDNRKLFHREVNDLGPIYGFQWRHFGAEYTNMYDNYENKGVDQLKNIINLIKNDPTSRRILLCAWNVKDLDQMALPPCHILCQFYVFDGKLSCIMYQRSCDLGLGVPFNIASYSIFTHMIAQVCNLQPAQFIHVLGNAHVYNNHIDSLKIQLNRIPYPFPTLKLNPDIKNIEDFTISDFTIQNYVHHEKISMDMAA
wild type (WT) pfDHFR, sequence (P13922 whole entry R59C/N108S): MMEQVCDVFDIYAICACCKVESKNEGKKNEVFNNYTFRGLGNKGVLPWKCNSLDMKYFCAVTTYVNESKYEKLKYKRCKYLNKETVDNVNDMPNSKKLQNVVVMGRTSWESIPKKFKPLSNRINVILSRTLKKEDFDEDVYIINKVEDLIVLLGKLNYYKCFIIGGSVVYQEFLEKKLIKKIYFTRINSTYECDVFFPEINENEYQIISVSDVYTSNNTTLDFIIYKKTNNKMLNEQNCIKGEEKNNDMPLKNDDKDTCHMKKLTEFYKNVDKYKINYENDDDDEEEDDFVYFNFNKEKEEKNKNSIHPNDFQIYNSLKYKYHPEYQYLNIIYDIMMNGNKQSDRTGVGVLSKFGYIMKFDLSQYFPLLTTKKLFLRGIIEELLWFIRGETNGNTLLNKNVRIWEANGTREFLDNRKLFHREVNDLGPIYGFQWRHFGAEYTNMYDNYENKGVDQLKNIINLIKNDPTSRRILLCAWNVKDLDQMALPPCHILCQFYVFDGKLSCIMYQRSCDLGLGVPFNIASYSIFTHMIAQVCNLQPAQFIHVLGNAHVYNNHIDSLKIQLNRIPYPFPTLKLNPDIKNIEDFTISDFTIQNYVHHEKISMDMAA

Turning to `CCc1nc(N)nc(N)c1OCCCOc1ccccc1CCC(=O)O` [Compound P218, reference compound], the IC50 in data set [1] is 4.6 ± 1.9 nM; in data set [2] (in vitro, quadruple mutant strain V1/S), 56 ± 20 nM; in the data set with Vero cells, more than 10000 nM. For the same compound, the Ki in data set [3] worked out at 17.4 ± 3.8 nM.

`CCc1nc(N)nc(N)c1-c1cn(-c2cccc(C(=O)O)c2)nn1.Cl` [Compound 2, 2,4-diamino-6-ethyl-5-(1-(3-(carboxy)phenyl)-1H-1,2,3-triazol-4-yl)pyrimidine Hydrochloride] came in with a melting point of 205 to 207 °C. The IC50 in data set [1] (setting [5]) is more than 10000 nM. Besides, the IC50 in data set [2] (setting [6]) is more than 10000 nM. Moreover, the IC50 in “in vitro” was more than 10000 nM. The Ki in data set [4] was found to be 6650 ± 409 nM. For the same compound, the affinity on wild type (WT) pfDHFR corresponds to a Ki of 1030 ± 89.3 nM. In addition, in data set [3], the Ki is more than 100000 nM.

In turn, `CCc1nc(N)nc(N)c1OCc1cn(-c2cccc(C(=O)O)c2)nn1.Cl` [Compound 16, 2,4-diamino-6-ethyl-5-((1-(3-(carboxy)phenyl)-1H-1,2,3-triazol-4-yl)methoxy)pyrimidine Hydrochloride] yielded a melting point of 197.5 to 199.5 °C. Also, the IC50 in data set [1] (setting [5]) stood at 600 ± 240 nM. Besides, the IC50 in data set [2] (setting [6]) was more than 25000 nM. Besides, the IC50 in the data set “in vitro” was more than 25000 nM. The Ki in data set [4] turned out to be 6.18 ± 0.6 nM. The compound also yielded a Ki on wild type (WT) pfDHFR of 0.27 ± 0.03 nM. Also, the Ki in data set [3] was 817 ± 145 nM.

Turning to `CCc1nc(N)nc(N)c1OCCCc1cc(-c2cccc(C(=O)O)c2)no1.Cl` [Compound 49, 2,4-diamino-6-ethyl-5-(3-(3-(3-(carboxy)phenyl)isoxazol-5-yl)propoxy)pyrimidine Hydrochloride], the melting point was in the range of 219 to 220.5 °C. Besides, the IC50 in data set [1] (setting [5]) came to 7 ± 1.5 nM. Further, the IC50 in data set [2] (setting [6]) was 130 ± 40 nM. In the data set “in vitro”, this compound displayed an IC50 of more than 100000 nM. Moreover, the Ki in data set [4] came to 0.29 ± 0.01 nM. In addition, at wild type (WT) pfDHFR, affinity was put at a Ki of 0.19 ± 0.02 nM. In data set [3], the Ki turned out to be 12.6 ± 1.43 nM.

As to `CCc1nc(N)nc(N)c1OCc1csc(-c2cccc(C(=O)O)c2)n1.Cl` [Compound 66, 2,4-diamino-6-ethyl-5-((2-(3-(carboxy)phenyl)thiazol-4-yl)methoxy)pyrimidine Hydrochloride], the melting point was in the range of 217.5 to 219 °C. The IC50 in data set [1] (setting [5]) is 2170 ± 540 nM. For the same compound, the IC50 in data set [2] (setting [6]) is more than 10000 nM. This compound displayed an IC50 in the data set “in vitro” of more than 10000 nM. Further, the inhibition constant Ki in data set [4] is 36.7 ± 4.79 nM. Besides, the Ki on wild type (WT) pfDHFR is 0.86 ± 0.1 nM. Also, the Ki in data set [3] came out at 102 ± 5.26 nM.

For `CCc1nc(N)nc(N)c1OCCc1csc(-c2ccccc2)n1` [Compound 76], the values for the IC50 (in data set [1] (setting [5]); in data set [2] (setting [6]); in the data set “in vitro”) were 11 ± 2 nM, 17800 ± 6800 nM and 1330 ± 460 nM, respectively. For the same compound, the Ki came to 7.28 ± 0.69 nM in data set [4], 0.94 ± 0.16 nM at wild type (WT) pfDHFR and 21 ± 1.24 nM in data set [3].

For `CCc1nc(N)nc(N)c1-c1cn(Cc2ccc(C(=O)OC)cc2)nn1` [Compound 4], the figures for the IC50 (in data set [1] (Plasmodium falciparum); in data set [2] (Plasmodium falciparum); in “in vitro”) were 5530 ± 840 nM, more than 25000 nM and more than 25000 nM, respectively. For the same compound, the Ki amounted to 5.2 ± 0.62 nM in data set [4], 3.3 ± 0.36 nM on wild type (WT) pfDHFR and 555 ± 20.1 nM in data set [3].

As for `CCc1nc(N)nc(N)c1OCc1cn(Cc2cc(F)c(O)c(F)c2)nn1` [Compound 27], the IC50 in data set [1] (setting [5]) is 16100 ± 6020 nM; in data set [2] (setting [6]), more than 50000 nM; in the data set “in vitro”, more than 50000 nM. Also, the Ki amounted to 285 ± 14.1 nM in data set [4] and 9.41 ± 0.85 nM at wild type (WT) pfDHFR. Besides, the “Ki hDHFR” value in data set [3] is on record as “High”.

Take `CCc1nc(N)nc(N)c1OCc1cc(-c2ccccc2)no1` [Compound 33]: the IC50 is 670 ± 130 nM in data set [1] (setting [5]), 15700 ± 4480 nM in data set [2] (setting [6]) and more than 25000 nM in the data set “in vitro”. For the same compound, the Ki in data set [4] was 38.1 ± 6.27 nM; on wild type (WT) pfDHFR, 0.51 ± 0.08 nM; in data set [3] it was 1480 ± 68.9 nM.
